Data: patent US9255093B2, “Polycyclic HERG activators” (NOVARTIS AG, priority 2014, dated 2016)
Marks after values point to notes of the source that are not given here.

The molecules below were run against hERG (human ether-a-go-go-related gene) potassium channel (Homo sapiens, UniProt Q12809) (assay: QPatch automated patch-clamp hERG activator 4-concentration EC50 assay). Conditions: increase of hERG tail current amplitude at 7 second (TL7); 3.3 uM (footnote *); hERG stably expressed in CHO cells.
Sequence of hERG (human ether-a-go-go-related gene) potassium channel (Q12809 whole entry): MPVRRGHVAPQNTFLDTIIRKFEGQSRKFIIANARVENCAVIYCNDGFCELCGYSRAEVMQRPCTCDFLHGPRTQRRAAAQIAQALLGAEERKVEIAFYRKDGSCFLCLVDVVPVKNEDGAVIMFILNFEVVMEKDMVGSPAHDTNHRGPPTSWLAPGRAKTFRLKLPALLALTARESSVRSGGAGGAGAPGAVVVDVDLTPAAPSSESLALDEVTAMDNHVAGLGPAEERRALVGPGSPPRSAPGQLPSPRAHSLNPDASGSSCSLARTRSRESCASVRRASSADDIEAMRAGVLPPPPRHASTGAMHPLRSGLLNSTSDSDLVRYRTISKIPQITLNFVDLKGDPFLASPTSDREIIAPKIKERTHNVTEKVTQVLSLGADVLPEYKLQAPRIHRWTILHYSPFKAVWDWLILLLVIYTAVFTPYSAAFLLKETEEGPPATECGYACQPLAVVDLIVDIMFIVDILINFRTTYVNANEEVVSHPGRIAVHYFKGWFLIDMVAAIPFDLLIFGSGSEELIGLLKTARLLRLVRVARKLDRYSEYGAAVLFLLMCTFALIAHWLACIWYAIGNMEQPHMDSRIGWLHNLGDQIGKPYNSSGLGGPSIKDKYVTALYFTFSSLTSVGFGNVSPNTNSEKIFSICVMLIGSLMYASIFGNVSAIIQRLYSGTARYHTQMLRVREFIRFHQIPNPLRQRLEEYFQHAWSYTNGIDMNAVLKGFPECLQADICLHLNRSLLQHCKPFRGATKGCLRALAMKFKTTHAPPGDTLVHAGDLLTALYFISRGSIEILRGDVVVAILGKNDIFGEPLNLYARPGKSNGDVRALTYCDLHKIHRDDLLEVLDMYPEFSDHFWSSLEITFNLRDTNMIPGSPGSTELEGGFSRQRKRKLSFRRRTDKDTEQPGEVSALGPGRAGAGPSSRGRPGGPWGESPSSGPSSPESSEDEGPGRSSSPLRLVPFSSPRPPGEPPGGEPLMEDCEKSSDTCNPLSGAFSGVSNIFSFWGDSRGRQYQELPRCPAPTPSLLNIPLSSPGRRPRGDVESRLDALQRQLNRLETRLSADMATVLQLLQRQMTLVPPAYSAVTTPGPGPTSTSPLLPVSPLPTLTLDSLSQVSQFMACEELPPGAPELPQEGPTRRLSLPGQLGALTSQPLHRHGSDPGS
Description: A patch-clamp assay on the QPatch© automated patch clamp system was employed to assesses whether compounds functionally enhance the cardiac delayed rectifier hERG (human ether-a-go-go-related gene) potassium channel. The assay measures electric the current passing through hERG channels that are heterologously expressed in a stable Chinese hamster ovary (CHO) cell line. Channels are opened by a hERG-specific voltage protocol and the compound effect is directly characterized by the activation of the hERG current. EC50 values are obtained from fitting 4-concentration dose response curves (1.1, 3.3, 10 & 30 uM) in triplicates at 4 different sections of the voltage protocol (steady state current amplitude at +10 mV, at +30 mV, peak tail current amplitude and tail current amplitude at 7 second).

Structure (SMILES) | % change@TL7 (*@3.3 uM)
COc1c(F)cc(NCc2ccc3cc(-c4nn[nH]n4)oc3c2)cc1Br [Example 1] | 166* %
CCOc1c(F)cc(NCc2ccc3cc(-c4nn[nH]n4)oc3c2)cc1Br [Example 2] | 126* %
FC(F)(F)c1ccc(NCc2ccc3cc(-c4nn[nH]n4)oc3c2)cc1Br [Example 3] | 121* %
FC(F)Oc1c(Br)cc(NCc2ccc3cc(-c4nn[nH]n4)oc3c2)cc1Br [Example 4] | 155* %

Same assay, conditions: increase of hERG tail current amplitude at 7 second (TL7); 10 uM; hERG stably expressed in CHO cells

Structure (SMILES) | % change@TL7@10 uM
CCOc1c(Cl)cc(NCc2cc3oc(-c4nnn[nH]4)cc3cc2Cl)cc1Cl [Example 5] | 146%
FC(F)(F)Oc1ccc(NCc2cc3oc(-c4nnn[nH]4)cc3cc2Cl)cc1C(F)(F)F [Example 6] | 264%
FC(F)(F)COc1ccc(NCc2cc3oc(-c4nnn[nH]4)cc3cc2Cl)cc1Cl [Example 8] | 128%
Fc1ccc(NCc2cc3oc(-c4nnn[nH]4)cc3cc2Cl)cc1OC(F)(F)F [Example 9] | 78%
CCOc1ccc(NCc2cc3oc(-c4nnn[nH]4)cc3cc2Cl)cc1C(F)(F)F [Example 10] | 285%
C=C(C)c1cc(NCc2ccc3cc(-c4nn[nH]n4)oc3c2)ccc1OC(F)(F)F [Example 11] | 129%
CCCc1ccc(NCc2cc3oc(-c4nnn[nH]4)cc3cc2Cl)cc1Cl [Example 12] | 85%
FC(F)(F)Oc1cc(NCc2cc3oc(-c4nnn[nH]4)cc3cc2Cl)ccc1Cl [Example 13] | 39%
FC(F)(F)c1ccc(NCc2cc3oc(-c4nnn[nH]4)cc3cc2Cl)cc1C(F)(F)F [Example 14] | 196%
Clc1cc2cc(-c3nnn[nH]3)oc2cc1CNc1cc(Cl)c(Cl)c(Cl)c1 [Example 15] | 162%
CCCc1ccc(NCc2ccc3cc(-c4nnn[nH]4)oc3c2)cc1C(F)(F)F [Example 16] | 521%
FC(F)Oc1ccc(NCc2ccc3cc(-c4nn[nH]n4)oc3c2)cc1Cl [Example 17] | 477%
CC(C)Oc1ccc(NCc2cc3oc(-c4nnn[nH]4)cc3cc2Cl)cc1C(F)(F)F [Example 18] | 409%
Clc1cc(NCc2ccc3cc(-c4nn[nH]n4)oc3c2)cc(Cl)c1Cl [Example 19] | 394%
FC(F)(F)Sc1ccc(NCc2ccc3cc(-c4nn[nH]n4)oc3c2)cc1Cl [Example 20] | 340%
Cc1cc(NCc2ccc3cc(-c4nn[nH]n4)oc3c2)ccc1OC(F)(F)F [Example 21] | 333%
FC(F)(F)COc1ccc(NCc2cc3oc(-c4nnn[nH]4)cc3cc2Cl)cc1C(F)(F)F [Example 22] | 328%
FC(F)(F)Oc1ccc(NCc2ccc3cc(-c4nn[nH]n4)oc3c2)cc1C(F)(F)F [Example 23] | 290%
FC(F)Oc1ccc(NCc2cc3oc(-c4nnn[nH]4)cc3cc2Cl)cc1C(F)(F)F [Example 25] | 269%
CSc1ccc(NCc2ccc3cc(-c4nn[nH]n4)oc3c2)cc1C(F)(F)F [Example 26] | 267%
FC(F)(F)COc1ccc(NCc2ccc3cc(-c4nn[nH]n4)oc3c2)cc1C(F)(F)F [Example 27] | 261%
CSc1cccc(NCc2ccc3cc(-c4nn[nH]n4)oc3c2)c1 [Example 28] | 260%

Structure (SMILES) | % change@TL7@10 uM
N#CCOc1ccc(NCc2cc3oc(-c4nnn[nH]4)cc3cc2Cl)cc1C(F)(F)F [Example 29] | 258%
O=C(c1ccc(NCc2ccc3cc(-c4nnn[nH]4)oc3c2)cc1)C(F)(F)F [Example 30] | 228%
CCCc1ccc(NCc2cc3oc(-c4nnn[nH]4)cc3cc2Cl)cc1C(F)(F)F [Example 31] | 218%
Clc1ccc(NCc2ccc3cc(-c4nn[nH]n4)oc3c2)cc1 [Example 33] | 192%
CCCc1ccc(NCc2cc3oc(-c4nnn[nH]4)cc3cc2Cl)cc1Br [Example 34] | 191%
Fc1cc(NCc2ccc3cc(-c4nn[nH]n4)oc3c2)cc(Br)c1F [Example 35] | 180%
FC(F)(F)Oc1ccc(NCc2cc3oc(-c4nnn[nH]4)cc3cc2Cl)cc1Br [Example 36] | 174%
FC(F)(F)Oc1ccc(NCc2ccc3cc(-c4nn[nH]n4)oc3c2)cc1Br [Example 37, N-((2-(2H-tetrazol-5-yl)benzofuran-6-yl)methyl)-3-bromo-4-(trifluoromethoxy)aniline] | 170%
FC(F)(F)Oc1ccc(NCc2ccc3c(C(F)(F)F)c(-c4nnn[nH]4)oc3c2)cc1C(F)(F)F [Example 38] | 164%
FC(F)(F)c1cc(NCc2ccc3cc(-c4nn[nH]n4)oc3c2)ccc1Br [Example 39] | 164%
FC1(F)Oc2ccc(NCc3ccc4cc(-c5nn[nH]n5)oc4c3)cc2O1 [Example 40] | 161%
FC(F)(F)Oc1ccc(NCc2ccc3cc(-c4nn[nH]n4)oc3c2)cc1OC(F)(F)F [Example 41] | 160%
CCCc1ccc(NCc2ccc3cc(-c4nnn[nH]4)oc3c2)cc1Br [Example 42] | 159%
Fc1cc(NCc2ccc3cc(-c4nn[nH]n4)oc3c2)ccc1OC(F)(F)F [Example 43] | 148%
FC(F)(F)COc1ccc(NCc2ccc3cc(-c4nn[nH]n4)oc3c2)cc1Cl [Example 44] | 146%
Clc1cc(NNCc2ccc3cc(-c4nn[nH]n4)oc3c2)cc(Cl)c1Cl [Example 45] | 145%
FC(F)(F)Oc1ccc(NCc2ccc3cc(-c4nn[nH]n4)oc3c2)cc1Cl [Example 46] | 139%
FC(F)(F)Oc1ccc(NCc2ccc3c(C(F)(F)F)c(-c4nnn[nH]4)oc3c2)cc1Br [Example 47] | 131%
FC(F)(F)Oc1cc(NCc2ccc3cc(-c4nn[nH]n4)oc3c2)ccc1Br [Example 48] | 123%
CCOc1c(Cl)cc(NCc2ccc3c(C(F)(F)F)c(-c4nnn[nH]4)oc3c2)cc1Cl [Example 49] | 106%
CCCc1ccc(NCc2ccc3c(C)c(-c4nnn[nH]4)oc3c2)cc1C(F)(F)F [Example 51] | 99%
FC(F)(F)c1ccc(NCc2ccc3cc(-c4nn[nH]n4)oc3c2)cc1C(F)(F)F [Example 52] | 95%

Structure (SMILES) | % change@TL7@10 uM
Cc1c(-c2nnn[nH]2)oc2cc(CNc3ccc(OC(F)(F)F)c(Br)c3)ccc12 [Example 53] | 95%
FC(F)(F)Oc1ccc(NCc2ccc3c(C(F)(F)F)c(-c4nnn[nH]4)oc3c2)cc1Cl [Example 54] | 94%
CCCc1ccc(NCc2ccc3c(C(F)(F)F)c(-c4nnn[nH]4)oc3c2)cc1C(F)(F)F [Example 55] | 90%
CCOc1ccc(NCc2ccc3c(C(F)(F)F)c(-c4nnn[nH]4)oc3c2)cc1C(F)(F)F [Example 56] | 88%
CC(C)Oc1ccc(NCc2ccc3c(C(F)(F)F)c(-c4nnn[nH]4)oc3c2)cc1C(F)(F)F [Example 57] | 76%
Fc1ccc(NCc2ccc3cc(-c4nn[nH]n4)oc3c2)cc1CC(F)(F)F [Example 58] | 71%
Brc1cccc(NCc2ccc3cc(-c4nn[nH]n4)oc3c2)c1 [Example 59] | 61%
FC(F)Oc1ccc(NCc2ccc3c(C(F)(F)F)c(-c4nnn[nH]4)oc3c2)cc1C(F)(F)F [Example 60] | 58%
FC(F)(F)c1ccc(NCc2ccc3c(C(F)(F)F)c(-c4nnn[nH]4)oc3c2)cc1Cl [Example 61] | 47%
COc1cc(NCc2ccc3cc(-c4nn[nH]n4)oc3c2)cc(OC)c1OC [Example 62] | 43%
FC(F)(F)Oc1ccc(NCc2ccc3cc(-c4nn[nH]n4)oc3c2)cc1 [Example 63] | 34%
FC(F)(F)Sc1ccc(NCc2ccc3oc(-c4nnn[nH]4)cc3c2)cc1Cl [Example 64] | 348%
FC(F)(F)Oc1ccc(NCc2ccc3oc(-c4nnn[nH]4)cc3c2)cc1Cl [Example 65] | 284%
CCCc1ccc(NCc2ccc3oc(-c4nnn[nH]4)cc3c2)cc1C(F)(F)F [Example 66] | 261%
FC1(F)Oc2ccc(NCc3ccc4oc(-c5nnn[nH]5)cc4c3)cc2O1 [Example 67] | 247%
CCCc1cc(NCc2ccc3oc(-c4nnn[nH]4)cc3c2)ccc1Cl [Example 68] | 224%
CCCc1c(C)cc(NCc2ccc3oc(-c4nnn[nH]4)cc3c2)cc1Cl [Example 69] | 221%
Cc1c(-c2nnn[nH]2)oc2ccc(CNc3ccc(SC(F)(F)F)c(Cl)c3)cc12 [Example 70] | 200%
CCCc1ccc(NCc2ccc3oc(-c4nnn[nH]4)cc3c2)cc1Cl [Example 71] | 193%
Fc1ccc(NCc2ccc3oc(-c4nnn[nH]4)cc3c2)cc1OC(F)(F)F [Example 72] | 176%
CC(Nc1cc(Cl)c(Cl)c(Cl)c1)c1ccc2oc(-c3nnn[nH]3)cc2c1 (stereo not drawn) [Example 73] | 132%
